Source: ChEMBL document CHEMBL5532696, “Discovery of new tricyclic spiroindole derivatives as potent P-glycoprotein inhibitors for reversing multidrug resistance enabled by a synthetic methodology-based library” (RSC Med Chem, 2024)
The source made the active and inactive calls. The rule behind the calls is not given here.

What was measured:
[1] = test system: Eca-109/VCR; assay: Reversal of vincristine resistance in human Eca-109/VCR cells assessed as reduction in cell viability incubated for 48 hrs by CCK-8 assay; format: functional, cell-based
[2] = test system: ECa-109 cell line; assay: Antiproliferative activity against human Eca-109 cells assessed as reduction in cell viability incubated for 48 hrs by CCK-8 assay; format: functional, cell-based; conditions: ECa-109, 48 h
[3] = test system: Eca-109/VCR; assay: Reversal of vincristine resistance in human Eca-109/VCR cells assessed as reversal fold by measuring ratio of vincristine IC50 to vincristine IC50 in presence of test compound at 5 uM incubated for 48 hrs by CCK8 assay; format: functional
[4] = test system: Eca-109/VCR; assay: Antiproliferative activity against human Eca-109/VCR cells assessed as cell viability at 5 uM incubated for 48 hrs by CCK-8 assay (reference value: 100 +/- 1.8%); format: functional; conditions: read-out: Activity
[5] = test system: Eca-109/VCR; assay: Induction of apoptosis in human Eca-109/VCR cells assessed as late apoptotic cells at 5 uM incubated for 48 hrs in presence of vincristine at 50 nM by Annexin V-FITC/DAPI staining based flow cytometry analysis (reference value: 5.06 %); format: functional
[6] = test system: Eca-109/VCR; assay: Induction of apoptosis in human Eca-109/VCR cells assessed as viable cells at 5 uM incubated for 48 hrs by Annexin V-FITC/DAPI staining based flow cytometry analysis (reference value: 94.6 %); format: functional; conditions: read-out: Activity
[7] = test system: Eca-109/VCR; assay: Induction of apoptosis in human Eca-109/VCR cells assessed as necrotic cells at 5 uM incubated for 48 hrs in presence of vincristine at 50 nM by Annexin V-FITC/DAPI staining based flow cytometry analysis (reference value: 0.062 %); format: functional
[8] = test system: Eca-109/VCR; assay: Induction of apoptosis in human Eca-109/VCR cells assessed as late apoptotic cells at 5 uM incubated for 48 hrs by Annexin V-FITC/DAPI staining based flow cytometry analysis (reference value: 4.31 %); format: functional
[9] = test system: Eca-109/VCR; assay: Induction of apoptosis in human Eca-109/VCR cells assessed as early apoptotic cells at 5 uM incubated for 48 hrs in presence of vincristine at 50 nM by Annexin V-FITC/DAPI staining based flow cytometry analysis (reference value: 1.33 %); format: functional
[10] = test system: Eca-109/VCR; assay: Induction of apoptosis in human Eca-109/VCR cells assessed as necrotic cells at 5 uM incubated for 48 hrs by Annexin V-FITC/DAPI staining based flow cytometry analysis (reference value: 0.073 %); format: functional
[11] = test system: Eca-109/VCR; assay: Induction of apoptosis in human Eca-109/VCR cells assessed as early apoptotic cells at 5 uM incubated for 48 hrs by Annexin V-FITC/DAPI staining based flow cytometry analysis (reference value: 0.97 %); format: functional
[12] = test system: Eca-109/VCR; assay: Induction of apoptosis in human Eca-109/VCR cells assessed as viable cells at 5 uM incubated for 48 hrs in presence of vincristine at 50 nM by Annexin V-FITC/DAPI staining based flow cytometry analysis (reference value: 93.5 %); format: functional; conditions: read-out: Activity
[13] = test system: Eca-109/VCR; assay: Inhibition of colony formation in human Eca-109/VCR cells at 0 to 12 nM incubated for 48 hrs by crystal violet staining based assay; format: functional, cell-based; conditions: dose 0-12 nM
[14] = test system: Eca-109/VCR; assay: Antiproliferative activity against human Eca-109/VCR cells assessed as reduction in cell viability at 10 uM incubated for 48 hrs by CCK-8 assay; format: functional, cell-based

| Structure (SMILES) | Ratio IC50 [3] | viability at 5 µM [4] [%] | further results |
| --- | --- | --- | --- |
| CS(=O)(=O)CCNCc1ccc(-c2ccc3ncnc(Nc4ccc(OCc5cccc(F)c5)c(Cl)c4)c3c2)o1 [LAPATINIB] |  |  | IC50 [1]: 6.69 µM; IC50 [2]: 9.16 µM |
| O=C1c2cc([N+](=O)[O-])ccc2C2C1C(c1ccccc1)C1(Cc3ccccc3C1=O)C2c1ccccc1 (stereo not given) | 34.8 | 85.2 |  |
| COc1cc2c(c(OC)c1OC)-c1ccc(OC)c(=O)cc1[C@@H](NC(C)=O)CC2 [COLCHICINE] |  |  | IC50 [1]: 3.63 µM; IC50 [2]: 0.012 µM |
| CCOC(=O)C1C2c3ccc([N+](=O)[O-])cc3C(=O)C2C(c2ccccc2)C12C(=O)N(C)c1ccc(OC(F)(F)F)cc12 (stereo not given) | 1.7 | 91.9 |  |
| CC(=O)O[C@@]12CO[C@@H]1C[C@H](O)[C@@]1(C)C(=O)[C@H](O)C3=C(C)[C@@H](OC(=O)[C@H](O)[C@@H](NC(=O)OC(C)(C)C)c4ccccc4)C[C@@](O)([C@@H](OC(=O)c4ccccc4)[C@H]21)C3(C)C [DOCETAXEL ANHYDROUS] |  |  | IC50 [1]: 9.73 µM; IC50 [2]: 0.773 µM |
| CCOC(=O)C1C2c3c(cccc3[N+](=O)[O-])C(=O)C2C(c2ccccc2)C12C(=O)N(C)c1ccccc12 (stereo not given) | 10.5 | 102 |  |
| O=C1c2c(O)ccc(O)c2C(=O)c2c(NCCNCCO)ccc(NCCNCCO)c21 [MITOXANTRONE] |  |  | IC50 [1]: 5.87 µM; IC50 [2]: 0.646 µM |
| CCOC(=O)C1C2c3ccc(Br)cc3C(=O)C2C(c2ccccc2)C12C(=O)N(C)c1ccccc12 (stereo not given) | 16.7 | 100 |  |
| CCOC(=O)C1C2c3ccc([N+](=O)[O-])cc3C(=O)C2C(c2cccc(OC)c2)C12C(=O)N(C)c1ccccc12 (stereo not given) | 3 | 99.7 |  |
| CN1C(=O)C2(c3cc(Cl)ccc31)C(C(=O)OC(C)(C)C)C1c3ccc([N+](=O)[O-])cc3C(=O)C1C2c1ccccc1 (stereo not given) | 388.1 | 98.2 |  |
| CCOC(=O)C1C2c3ccc([N+](=O)[O-])cc3C(=O)C2C(c2ccccc2)C12C(=O)N(C)c1ccccc12 (stereo not given) | 86.8 | 102 |  |
| CCOC(=O)C1C2c3ccc([N+](=O)[O-])cc3C(=O)C2C(c2ccccc2C)C12C(=O)N(C)c1ccccc12 (stereo not given) | 14.7 | 92.2 |  |
| CCOC(=O)C1C2c3ccc([N+](=O)[O-])cc3C(=O)C2C(c2ccccc2)C12C(=O)N(C)c1c(C)cccc12 (stereo not given) | 38.9 | 102 |  |
| CCOC(=O)C1C2c3ccc([N+](=O)[O-])cc3C(=O)C2C(c2cccc(C)c2)C12C(=O)N(C)c1ccccc12 (stereo not given) | 56.7 | 102 |  |
| COc1cc2c(cc1OC)CN(CCc1ccc(NC(=O)c3cc(OC)c(OC)cc3NC(=O)c3cnc4ccccc4c3)cc1)CC2 [TARIQUIDAR] | 364.3 | 84.8 | Activity [5]: 6.59%; viability at 5 µM [6]: 92.3%; Activity [7]: 0.68%; Activity [8]: 3.35%; Activity [9]: 13.8%; Activity [10]: 0.1%; Activity [11]: 4.28%; viability at 5 µM [12]: 79% |
| CCOC(=O)C1C2c3ccc([N+](=O)[O-])cc3C(=O)C2C(c2ccccc2)C12C(=O)N(C)c1ccc(OC)cc12 (stereo not given) | 16.4 | 99.4 |  |
| CCOC(=O)C1C2c3ccc([N+](=O)[O-])cc3C(=O)C2C(c2ccccc2)C12C(=O)N(C)c1cc(OC)ccc12 (stereo not given) | 53.2 | 90.5 |  |
| COc1ccc(CCN(C)CCCC(C#N)(c2ccc(OC)c(OC)c2)C(C)C)cc1OC (stereo not given) [VERAPAMIL] | 107.9 | 98.9 | Activity [5]: 3.93%; viability at 5 µM [6]: 94%; Activity [7]: 0.32%; Activity [8]: 3.05%; Activity [9]: 12.1%; Activity [10]: 0.049%; Activity [11]: 2.86%; viability at 5 µM [12]: 83.6% |
| CC[C@]1(O)C[C@H]2CN(CCc3c([nH]c4ccccc34)[C@@](C(=O)OC)(c3cc4c(cc3OC)N(C=O)[C@H]3[C@@](O)(C(=O)OC)[C@H](OC(C)=O)[C@]5(CC)C=CCN6CC[C@]43[C@@H]65)C2)C1 |  |  | inhibition [13]: inactive |
| O=C1c2cc([N+](=O)[O-])ccc2C2C1C(c1ccccc1)C([N+](=O)[O-])C2c1ccccc1 (stereo not given) | 49.9 | 78.2 |  |

| Structure (SMILES) | Ratio IC50 [3] | viability at 5 µM [4] [%] | further results |
| --- | --- | --- | --- |
| CCOC(=O)C1C2c3ccc([N+](=O)[O-])cc3C(=O)C2C(c2ccccc2)C12C(=O)N(C)c1c(C)cc(C)cc12 (stereo not given) | 2.3 | 89.7 |  |
| CCOC(=O)C1C2c3ccc([N+](=O)[O-])cc3C(=O)C2C(c2ccco2)C12C(=O)N(C)c1ccccc12 (stereo not given) | 12.7 | 102 |  |
| CCOC(=O)C1C2c3ccc(-n4cc(-c5ccccc5)nn4)cc3C(=O)C2C(c2ccccc2)C12C(=O)N(C)c1ccccc12 (stereo not given) | 56.1 | 98.9 |  |
| CN1C(=O)C2(c3cc(Br)ccc31)C(C(=O)OC(C)(C)C)C1c3ccc([N+](=O)[O-])cc3C(=O)C1C2c1ccccc1 (stereo not given) | 2.9 | 105 |  |
| O=C1c2cc([N+](=O)[O-])ccc2C2C1C(c1ccccc1)C1(C(=O)c3ccccc3C1=O)C2c1ccccc1 (stereo not given) | 57.1 | 96.6 |  |
| O=C1c2cc([N+](=O)[O-])ccc2C2C1C(c1ccccc1)C(C(=O)c1ccccc1)C2C(F)(F)F (stereo not given) |  | 56.3 |  |
| CN1C(=O)[C@@]2(c3cc(Cl)ccc31)[C@H](c1ccccc1)[C@H]1C(=O)c3cc([N+](=O)[O-])ccc3[C@H]1[C@@H]2C(=O)NC(C)(C)C | 471.3 | 96.7 | Activity [14]: inactive |
| O=C1c2cc([N+](=O)[O-])ccc2C2C1C(c1ccccc1)C1(Oc3ccccc3C1=O)C2c1ccccc1 (stereo not given) | 15.2 | 99.1 |  |
| CN1C(=O)C2(c3ncccc31)C(C(=O)OC(C)(C)C)C1c3ccc([N+](=O)[O-])cc3C(=O)C1C2c1ccccc1 (stereo not given) | 33.6 | 104 |  |
| CCOC(=O)C1C2c3ccc([N+](=O)[O-])cc3C(=O)C2C(c2ccc(C)cc2)C12C(=O)N(C)c1ccccc12 (stereo not given) | 24.7 | 102 |  |
| CCOC(=O)C1C2c3ccc([N+](=O)[O-])cc3C(=O)C2C(c2ccc(C(F)(F)F)cc2)C12C(=O)N(C)c1ccccc12 (stereo not given) | 39.2 | 97.9 |  |
| COC(=O)C1C(C(=O)c2ccccc2)C(c2ccccc2)C2C(=O)c3cc([N+](=O)[O-])ccc3C12 (stereo not given) | 12.3 | 75.2 |  |
| CCOC(=O)C1C2c3ccc([N+](=O)[O-])cc3C(=O)C2C(C2CC2)C12C(=O)N(C)c1ccccc12 (stereo not given) | 2.5 | 96.2 |  |
| CN1C(=O)C2(c3cc(Cl)ccc31)C(C(=O)NC(C)(C)C)C1c3ccc([N+](=O)[O-])cc3C(=O)C1C2c1ccccc1 (stereo not given) | 659.1 | 97.5 |  |
| CN1C(=O)C2(c3cccc(Br)c31)C(C(=O)OC(C)(C)C)C1c3ccc([N+](=O)[O-])cc3C(=O)C1C2c1ccccc1 (stereo not given) | 38.6 | 99.8 |  |
| CCOC(=O)C1C2c3ccc([N+](=O)[O-])cc3C(=O)C2C(c2ccccc2Br)C12C(=O)N(C)c1ccccc12 (stereo not given) | 1.8 | 96.4 |  |
| COc1cccc2c1C(=O)c1c(O)c3c(c(O)c1C2=O)C[C@@](O)(C(=O)CO)C[C@@H]3O[C@H]1C[C@H](N)[C@H](O)[C@H](C)O1 [DOXORUBICIN] |  |  | IC50 [1]: 20.2 µM; IC50 [2]: 2.07 µM |
| CCOC(=O)C1C2c3ccc([N+](=O)[O-])cc3C(=O)C2C(c2ccc(Br)cc2)C12C(=O)N(C)c1ccccc12 (stereo not given) | 11.7 | 85.1 |  |
| CN1C(=O)C2(c3cc(F)ccc31)C(C(=O)OC(C)(C)C)C1c3ccc([N+](=O)[O-])cc3C(=O)C1C2c1ccccc1 (stereo not given) | 6.6 | 101 |  |
| CN1C(=O)C2(c3ccccc31)C(C(=O)OC(C)(C)C)C1c3ccc([N+](=O)[O-])cc3C(=O)C1C2c1ccccc1 (stereo not given) | 56.1 | 103 |  |
